The term cell viability denotes a read-out of living cells in per cent, often relative to untreated cells.

Settings in all cases: 72 h
Experiment [1] deals with Vero E6. Put plainly: drug sensitivity score (DSS) for viability; higher = more toxic; extreme values may be limits of the assay.
In experiment [2] the test system is Calu-3. The description is as above.
Experiment [3] relates to Caco-2. The experiment is described as above.
The test system of experiment [4] is U2OS. The description is as above.
Experiment [5] relates to Vero E6. Put plainly: relative viability EC50 (midpoint between 100% and the lowest measured viability); higher = less toxic.
Experiment [6] has as its system Calu-3. The experiment is described as above.
Experiment [7] relates to Caco-2. Described as above.
Experiment [8] has as its system U2OS. The experiment is described as above.
In experiment [9] the test system is Vero E6. Put plainly: cell viability relative to DMSO; higher = less toxic.
Experiment [10] relates to Calu-3. The experiment is described as above.
The test system of experiment [11] is Caco-2. The experiment is described as above.
For experiment [12], the system named is U2OS. The experiment is described as above.
The test system of experiment [13] is HepG2. The experiment can be described thus: drug sensitivity score (DSS) for viability; higher = more toxic; extreme values may be limits of the assay.
Experiment [14] deals with HepG2. Put plainly: cell viability relative to DMSO; higher = less toxic.

As to `CCC1(C)CC(=O)NC1=O` (stereo unspecified) [ethosuximide], the drug sensitivity score in the experiment on Vero E6 [1], in the experiment on Calu-3 [2], in the experiment with Caco-2 [3] and in the experiment on U2OS [4] was 0 throughout. For the same compound, the “relative viability EC50” value with Vero E6 [5], in the experiment on Calu-3 [6], in the experiment on Caco-2 [7] and with U2OS [8] was above 10 µM each time. Further, the cell viability turned out to be 99.2% with Vero E6 [9] (1 nM); 106% in the experiment with Vero E6 [9] (10 nM); 101% in the experiment on Vero E6 [9] (100 nM); 103% with Vero E6 [9] (1000 nM); 96.6% in the experiment with Vero E6 [9] (10000 nM); 110% in the experiment with Calu-3 [10] (1 nM). The cell viability with Calu-3 [10] (10 nM) is 93.6%; in the experiment with Calu-3 [10] (100 nM), 89.8%; in the experiment with Calu-3 [10] (1000 nM), 107%; in the experiment with Calu-3 [10] (10000 nM) it was 94%; in the experiment on Caco-2 [11] (1 nM) it was 87%; in the experiment with Caco-2 [11] (10 nM), 77.2%. Further, the cell viability with Caco-2 [11] (100 nM) was found to be 88.5%; with Caco-2 [11] (1000 nM) it was 84.8%; in the experiment with Caco-2 [11] (10000 nM) it was 84.6%; in the experiment on U2OS [12] (1 nM), 102%; in the experiment on U2OS [12] (10 nM), 93.4%; in the experiment on U2OS [12] (100 nM), 102%. Also, the cell viability with U2OS [12] (1000 nM) is 99.6%; in the experiment with U2OS [12] (10000 nM), 100%.
As to `O=C(Nc1cccc2cccnc12)c1ccc(N2C(=O)[C@@H]3[C@H](C2=O)[C@H]2C=C[C@@H]3C2)cc1` [exo-IWR-1], the drug sensitivity score with HepG2 [13] came to 0.5; in the experiment with Vero E6 [1], 0; in the experiment with Calu-3 [2] it was 0; in the experiment on Caco-2 [3], 0; in the experiment on U2OS [4], 0. The cell viability in the experiment with HepG2 [14] (1 nM) turned out to be 105%; in the experiment on HepG2 [14] (10 nM) it was 99.3%; with HepG2 [14] (100 nM), 103%; with HepG2 [14] (1000 nM), 87.9%; in the experiment with HepG2 [14] (10000 nM) it was 92%; in the experiment with Vero E6 [9] (1 nM) it was 94.2%. For the same compound, the cell viability with Vero E6 [9] (10 nM) was determined as 93.1%; in the experiment on Vero E6 [9] (100 nM), 92.2%; in the experiment on Vero E6 [9] (1000 nM), 97.1%; in the experiment with Vero E6 [9] (10000 nM) it was 106%; in the experiment with Calu-3 [10] (1 nM), 87.4%; with Calu-3 [10] (10 nM), 103%. In addition, the cell viability with Calu-3 [10] (100 nM) stood at 107%; with Calu-3 [10] (1000 nM), 103%; in the experiment on Calu-3 [10] (10000 nM), 102%; with Caco-2 [11] (1 nM), 92.2%; in the experiment with Caco-2 [11] (10 nM), 100%; in the experiment on Caco-2 [11] (100 nM), 103%. The cell viability amounted to 102% in the experiment with Caco-2 [11] (1000 nM); 106% with Caco-2 [11] (10000 nM); 99.1% with U2OS [12] (1 nM); 104% in the experiment with U2OS [12] (10 nM); 99.6% with U2OS [12] (100 nM); 108% in the experiment on U2OS [12] (1000 nM). The cell viability with U2OS [12] (10000 nM) turned out to be 104%.
For `CN1CCN(c2c(F)cc3c(=O)c(C(=O)O)cn(CCF)c3c2F)CC1` [fleroxacin], the drug sensitivity score in the experiment on Vero E6 [1], with Calu-3 [2], with Caco-2 [3] and with U2OS [4] was 0 each time. Also, the “relative viability EC50” value with Vero E6 [5], with Calu-3 [6], in the experiment with Caco-2 [7] and with U2OS [8] was above 10 µM in each case. Moreover, the cell viability in the experiment with Vero E6 [9] (1 nM) is 102%; in the experiment on Vero E6 [9] (10 nM), 105%; with Vero E6 [9] (100 nM) it was 97.6%; in the experiment on Vero E6 [9] (1000 nM) it was 101%; in the experiment on Vero E6 [9] (10000 nM), 98.1%; in the experiment on Calu-3 [10] (1 nM) it was 88%. Moreover, the cell viability was found to be 106% in the experiment with Calu-3 [10] (10 nM); 102% in the experiment with Calu-3 [10] (100 nM); 108% with Calu-3 [10] (1000 nM); 107% in the experiment on Calu-3 [10] (10000 nM); 102% with Caco-2 [11] (1 nM); 97.2% with Caco-2 [11] (10 nM). Besides, the cell viability in the experiment on Caco-2 [11] (100 nM) was 100%; with Caco-2 [11] (1000 nM) it was 96.8%; in the experiment with Caco-2 [11] (10000 nM) it was 107%; in the experiment on U2OS [12] (1 nM) it was 96.5%; in the experiment with U2OS [12] (10 nM), 93.6%; in the experiment with U2OS [12] (100 nM) it was 104%. Besides, the cell viability in the experiment with U2OS [12] (1000 nM) stood at 97.1%; with U2OS [12] (10000 nM), 102%.
Take `Nc1nnc(-c2cccc(Cl)c2Cl)c(N)n1` [lamotrigine]: the drug sensitivity score in the experiment on Calu-3 [2] and in the experiment with U2OS [4] was 0 throughout.
Consider `CC(=O)CC(=O)O` [lithium-acetoacetate], for which the drug sensitivity score in the experiment with Vero E6 [1], with Calu-3 [2], in the experiment with Caco-2 [3] and in the experiment on U2OS [4] was 0 throughout. Moreover, the “relative viability EC50” value in the experiment with Vero E6 [5], in the experiment on Calu-3 [6], in the experiment with Caco-2 [7] and in the experiment on U2OS [8] was above 10 µM in each case. For the same compound, the cell viability was 103% in the experiment on Vero E6 [9] (1 nM); 104% in the experiment on Vero E6 [9] (10 nM); 103% with Vero E6 [9] (100 nM); 97.7% with Vero E6 [9] (1000 nM); 105% with Vero E6 [9] (10000 nM); 98.2% with Calu-3 [10] (1 nM). Further, the cell viability with Calu-3 [10] (10 nM) was found to be 101%; in the experiment with Calu-3 [10] (100 nM) it was 98.9%; in the experiment with Calu-3 [10] (1000 nM) it was 99%; in the experiment with Calu-3 [10] (10000 nM) it was 100%; with Caco-2 [11] (1 nM), 94%; in the experiment on Caco-2 [11] (10 nM), 104%. The cell viability came to 101% in the experiment with Caco-2 [11] (100 nM); 109% with Caco-2 [11] (1000 nM); 99.3% in the experiment with Caco-2 [11] (10000 nM); 98.6% with U2OS [12] (1 nM); 101% in the experiment on U2OS [12] (10 nM); 98.1% with U2OS [12] (100 nM). In addition, the cell viability with U2OS [12] (1000 nM) was 102%; in the experiment on U2OS [12] (10000 nM), 96.8%.

Source of the values: the supplement of paper PMC13380429.
